The subject of one assay is CDC37–BRAF interaction. In words: Co-IP of CDC37-FLAG with BRAF-V5 in HEK293. The format is cell-based, human (HEK293). The settings on record: HEK293, 25 μM braftide, bortezomib pretreatment. The protocol:
HEK293 cells were seeded at 1(10)^6 cells per well for a 6-well plate or 5(10)^6 for 10 cm dishes and incubated until 40% to 60% confluency. Transfection was carried out using a 1:3 DNA:PEI-MAX ratio in OPTI-MEM and allowed 48 h for protein expression. For peptide assays, 48 h post-transfection, cells were treated with TAT–braftide carried in OPTI-MEM at indicated concentrations. Cells were harvested in cold PBS. Harvested cells were lysed in 4% SDS or modified radioimmunoprecipitation assay (RIPA) for co-IP experiments. Quantification of total protein by the bicinchoninic acid assay was carried out according to the manufacturer's protocols (Pierce; catalog no.: 23225).
Transfected HEK293 cells were treated with the indicated treatments and harvested in cold PBS. […] Samples were analyzed via immunoblot.
Western blot band densities were quantified with ImageJ software (National Institutes of Health) and normalized to the indicated loading control. Statistical significance was determined through one-/two-way ANOVA, where indicated, followed by Tukey's honest significant difference post hoc test with corresponding p values (∗p < 0.05, ∗∗p < 0.002, ∗∗∗p < 0.0002, and ∗∗∗∗p < 0.0001). […]

In a further assay the test system is CDC37–CRAF interaction. Nature of the assay: Co-IP of CDC37-FLAG with CRAF-HA in HCT116. The format is cell-based. To be noted: HCT116, 5 µM braftide, three biological replicates.
The test system of a further assay is BRAF–CDC37 interaction. In words: NanoBiT luminescence CDC37–RAF interaction reporter assay, BRAF^SmBiT–CDC37^LgBiT. The format is cell-based, human (HEK293). From the text: NanoBiT cytomegalovirus MCS BiBiT vector, which contains a BRAF N terminal fused with LgBiT and CRAF N terminal fused with SmBiT, was purchased from Promega. CDC37 LgBiT and CRAF SmBiT was generated using the standard Gibson Assembly (NEB HiFi Assembly) using NanoBiT BiBiT as the vector and following primers: 5′ […] 3′, 5′ […] 3′, 5′ […] 3′, 5′ […] 3′, and CDC37 LgBiT and BRAF SmBiT was generated using the standard Gibson Assembly using NanoBiT BiBiT as the vector and following primers: 5′ […] 3′, 5′ […] 3′, 5′ […] 3′, 5′ […] 3′. Primers were designed to introduce H20A, N22A, I23A triple mutation within the CDC37 FLAG tag and for NanoBiT construct CDC37(HNI/A) LgBit and BRAF SmBiT. Primers were designed to introduce the desired substitutions. The forward primer sequence was 5′ gccgcc[…] 3′, and the reverse primer sequence was 5′ gggggc[…] 3′. Site-directed mutagenesis was carried out using the Q5 Site-Directed Mutagenesis Kit (NEB; E0554) following the manufacturer's protocol.
Twenty-four hours post-transfection, cells were trypsinized, pelleted, resuspended in OptiMEM + 4% fetal bovine serum, and reseeded onto a 96-well plate at 5(10)^4 cells per well and then incubated at 37 °C overnight. Cells were pretreated with 1 μM bortezomib for 5 h and then braftide for 4 h at 0 and 25 μM. After treatment, 10 μM furimazine substrate was added to each well, and luminescence readings were taken at 470 to 480 nm using a CLARIOstar plate reader. Statistical significance was determined through a paired t test where indicated, followed by Tukey's honest significant difference post hoc test with corresponding p values (∗p < 0.05, ∗∗p < 0.01, and ∗∗∗p < 0.001). All graph bars represent the mean ± SD with individual data points per biological replicate with corresponding p values.
(Reporter assays use an easily measured gene product as a stand-in for the process of interest.)

The next assay relates to HEK293 cells. Nature of the assay: Annexin V apoptosis assay, HEK293. In kind it is cell-based, human. To be noted: 0, 5, 10, 25, 50, 75, and 100 μM braftide, 4 h, n = 3. The protocol: HEK293 cells and HCT116 cells were treated with either control or braftide at the indicated concentrations for 4 h. After treatment, both the floating and adherent cell populations were collected and adjusted with PBS (final concentration: 1 × 10^5 cells/ml). The cells were then mixed with the Annexin V (Cytex; FCCH100108) reagent in a 5:1 ratio (100 μl of cells mixed with 20 μl of Annexin V reagent) and allowed to stain in the dark, at room temperature for 15 min. The cells were then analyzed on a Guava Muse Cell Analyzer (Millipore).

For a further assay, the system named is HCT116 proteome. In words: Global proteomic identification of braftide-regulated proteins (LC–MS/MS) in HCT116. The settings on record: HCT116, 10 μM braftide, 1 h. In kind it is cell-based, human. The protocol:
HCT116 cells were treated in the absence and presence of 10 μM TAT–braftide, 1 h, 37 °C. Cell pellets were harvested in PBS and cryopreserved. Samples were sent to be lysed and identified through MS in three biological replicates (LC–MS/MS; The Wistar Institute). Data were processed through the previously reported GO analysis via the Panther database ([42]) and plotted on Origin (OriginLab Corporation). For the volcano plot, the cutoff for the presented data is p = 0.01 (∗∗), q value <0.05 (Student's t test value adjusted for multiple comparisons using the Benjamini–Hochberg false discovery rate correction) and detected in at least two or more replicates. A total of 5405 proteins were identified, emphasizing a twofold change in NeonGreen and in red. Source data are available in the supporting information files.

A further assay concerns RAF kinase. The settings on record: in vitro and in cells; cited from earlier work. From the text:
The sequence of braftide mirrors the residues spanning the tail end of the αC helix and a region known as the αC helix–β4 loop, which includes three key residues: BRAF R509, L515, and M517, critical for RAF dimerization.

Consider 1 substance from article PMC12830207, “Targeting the protein–protein interaction between the CDC37 cochaperone and client kinases by an allosteric RAF dimer breaker” (The Journal of Biological Chemistry, 2025).

For “GRKKRRQRRRPQ-miniPEG-TRHVNILLFM [Braftide]”, the “CDC37–BRAF complex” value with CDC37–BRAF interaction is reported as “reduced the CDC37–client BRAF–CRAF complex”. The “CDC37–CRAF interaction” value in the assay with CDC37–CRAF interaction is “decreases its association with coimmunoprecipitated BRAF-V5 and CRAF-HA”; with CDC37–CRAF interaction (listed as braftide), “reduced the CDC37–RAF interaction at lower doses than in HEK293 cells”. For the same substance, the “NanoBiT luminescence, BRAF^SmBiT–CDC37^LgBiT” value with BRAF–CDC37 interaction (HEK293, 25 μM braftide, 4 h, 1 μM bortezomib pretreatment 5 h, 10 μM furimazine, 470 to 480 nm) is “reduction in luminescence, reflecting a decrease in the CDC37–RAF interaction”. The “protein levels of NanoBiT constructs (immunoblot control)” value with BRAF–CDC37 interaction (HEK293, braftide, bortezomib pretreatment, BRAF and CRAF constructs (Fig. 1, K and M)) is on record as “protein levels remained the same with bortezomib pretreatment”. Moreover, the “apoptosis (Annexin V), HEK293” value in the assay on HEK293 cells is listed as “triggers apoptosis”; in the assay on HEK293 cells (listed as braftide) it was “triggered dose-dependent apoptosis”. Besides, the “FoldChange Treat/NoTreat, COA3” value in the assay on HCT116 proteome (protein COA3 (Q9Y2R0), q-value 1.02E-05, LFQ, missing values imputed) was determined as 76.35. In addition, the “FoldChange Treat/NoTreat, HPX” value in the assay with HCT116 proteome (protein HPX (P02790), q-value 0.000814707, LFQ) stood at 99.13. Moreover, the “FoldChange Treat/NoTreat, PDK2” value in the assay on HCT116 proteome (protein PDK2 (Q15119), q-value 1.74E-05, LFQ, missing values imputed) is listed as 40.24. Also, in the assay on HCT116 proteome (protein RNF169 (Q8NCN4), q-value 4.15E-05, LFQ, missing values imputed), the “FoldChange Treat/NoTreat, RNF169” value came to 48.52. Further, the “FoldChange Treat/NoTreat, TOMM6” value with HCT116 proteome (protein TOMM6 (Q96B49), q-value 1.36E-06, LFQ, missing values imputed) is 129.15. Also, the RAF kinase activity entry in the assay with RAF kinase is recorded as “inhibits RAF kinase activity”. The “paradoxical activation induced by ATP-competitive inhibitors” value with RAF kinase is “mitigates paradoxical activation induced by ATP-competitive inhibitors, both in vitro and in cells”.
